Laboratory results reported in patent US8586611B2 (priority 2005, dated 2013).

Legend:
Format in all cases: in vivo
Plasmopara viticola = test: Test B: grape downy mildew, spray 24 h after inoculation (disease rating, 100 = 100% disease control)
Outline: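 This is a curative spray test, applied 24 h after inoculation. Compounds in 50/50 acetone–water with 250 ppm Trem 014 surfactant were sprayed to run-off on P. viticola-infected seedlings, with 200 ppm equating to 500 g/ha. Plants were kept 5 days in a 20 °C growth chamber, then 24 h humid, and scored 0–100 for disease control relative to controls.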

Phytophthora infestans [1] = test: whole plant or invertebrate; settings: tomato late blight
Phytophthora infestans [2] = test: whole plant or invertebrate; settings: tomato late blight; remark: listed apart in the source
[3] = system: Erysiphe graminis f. sp. tritici; test: Test E: wheat powdery mildew, spray the day before inoculation (disease rating, 100 = 100% disease control)
Outline: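 Protective test: spores of E. graminis f. sp. tritici dusted on wheat seedlings one day after run-off spraying of test suspension (acetone/water with 250 ppm surfactant; 200 ppm = 500 g/ha). Ratings after 7 days in growth chamber at 20° C, 100 = full control, 0 = none, relative to controls.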

[4] = spray 24 h after inoculation, compounds without asterisk (not 40 or 10 ppm)
[5] = spray the day before inoculation, compounds without asterisk (not 40 or 10 ppm)
[6] = spray 17 h after inoculation, compounds without asterisk (not 40 or 10 ppm)
[7] = spray the day before inoculation, tested at 40 ppm
[8] = spray 24 h after inoculation, tested at 10 ppm
[9] = spray the day before inoculation, tested at 10 ppm
[10] = spray 17 h after inoculation, tested at 10 ppm

Row | SMILES | Test B disease rating (100 = 100% disease control, 0 = no disease control) (Plasmopara viticola; [4]) | Test C disease rating (100 = 100% disease control, 0 = no disease control) (Phytophthora infestans [1]; [5]) | Test D disease rating (100 = 100% disease control, 0 = no disease control) (Phytophthora infestans [2]; [6]) | Test E disease rating (100 = 100% disease control, 0 = no disease control) [3, 5] | further results
1 | Cc1cc(C(F)(F)F)nn1CC(=O)N1CCCN(c2nc(C(=O)N(C)[C@@H]3CCCc4ccccc43)cs2)CC1.Cl [compound 242] | 16% | 100% | 73% | 0% | 
2 | Cc1ccccc1C(C)N(C)C(=O)c1csc(C2CCN(C(=O)Cn3nc(C(F)(F)F)cc3C)CC2)n1 (stereo not shown) [compound 243] |  |  |  |  | Test B disease rating (100 = 100% disease control, 0 = no disease control) (Plasmopara viticola; spray 24 h after inoculation, tested at 40 ppm): 91%; Test C disease rating (100 = 100% disease control, 0 = no disease control) (Phytophthora infestans [1]; [7]): 86%; Test D disease rating (100 = 100% disease control, 0 = no disease control) (Phytophthora infestans [2]; spray 17 h after inoculation, tested at 40 ppm): 82%; Test E disease rating (100 = 100% disease control, 0 = no disease control) [3, 7]: 0%
3 | COC(=O)[C@H](c1ccccc1)N(C)C(=O)c1csc(C2CCN(C(=O)Cn3nc(C(F)(F)F)cc3C)CC2)n1 [compound 244] | 100% | 99% | 93% | 0% | 
4 | Cc1cc(C(F)(F)F)nn1CC(=O)N1CCC(c2nc(C(=O)N(C)[C@H](C(=O)O)c3ccccc3)cs2)CC1 [compound 245] | 0% | 47% | 0% | 0% | 
5 | Cc1cc(C(F)(F)F)nn1CC(=O)N1CCC(c2nc(C(=O)N(C)[C@H](C(N)=O)c3ccccc3)cs2)CC1 [compound 247] | 0% | 90% | 17% | 0% | 
6 | Cc1cc(C(F)(F)F)nn1CC(=O)N1CCC(c2nc(C(=O)N(C)Cc3ccccc3)cs2)CC1 [compound 248] | 88% | 100% | 80% | 53% | 
7 | Cc1cc(C(F)(F)F)nn1CC(=O)N1CCC(c2nc(C(=O)N(C)C(C)c3ccccc3F)cs2)CC1 (stereo not shown) [compound 250] |  |  |  |  | Test B disease rating (100 = 100% disease control, 0 = no disease control) (Plasmopara viticola; [8]): 97%; Test C disease rating (100 = 100% disease control, 0 = no disease control) (Phytophthora infestans [1]; [9]): 97%; Test D disease rating (100 = 100% disease control, 0 = no disease control) (Phytophthora infestans [2]; [10]): 71%; Test E disease rating (100 = 100% disease control, 0 = no disease control) [3, 9]: 0%
8 | Cc1cc(C(F)(F)F)nn1CC(=O)N1CCC(c2nc(C(=O)N(C)C(C)c3ccccc3Cl)cs2)CC1 (stereo not shown) [compound 251] |  |  |  |  | Test B disease rating (100 = 100% disease control, 0 = no disease control) (Plasmopara viticola; [8]): 100%; Test C disease rating (100 = 100% disease control, 0 = no disease control) (Phytophthora infestans [1]; [9]): 100%; Test D disease rating (100 = 100% disease control, 0 = no disease control) (Phytophthora infestans [2]; [10]): 97%; Test E disease rating (100 = 100% disease control, 0 = no disease control) [3, 9]: 0%
9 | Cc1cc(C(F)(F)F)nn1CC(=O)N1CCC(c2nc(C(=O)N(C)C(C)c3ccccc3Br)cs2)CC1 (stereo not shown) [compound 252] |  |  |  |  | Test B disease rating (100 = 100% disease control, 0 = no disease control) (Plasmopara viticola; sprayed 24 h after inoculation, tested at 10 ppm (**)): 99; Test C disease rating (100 = 100% disease control, 0 = no disease control) (Phytophthora infestans [1]; sprayed the day before inoculation, tested at 10 ppm (**)): 99; Test D disease rating (100 = 100% disease control, 0 = no disease control) (Phytophthora infestans [2]; sprayed 17 h after inoculation, tested at 10 ppm (**)): 85; Test E disease rating (100 = 100% disease control, 0 = no disease control) ([3]; sprayed the day before inoculation, 7 days at 20° C., tested at 10 ppm (**)): 19
10 | Cc1cc(C(F)(F)F)nn1CC(=O)N1CCC(c2nc(C(=O)N(C)C(c3ccc(Cl)cc3)C(F)(F)F)cs2)CC1 (stereo not shown) [compound 253] |  |  |  |  | Test B disease rating (100 = 100% disease control, 0 = no disease control) (Plasmopara viticola; sprayed 24 h after inoculation, tested at 40 ppm (*)): 96; Test C disease rating (100 = 100% disease control, 0 = no disease control) (Phytophthora infestans [1]; sprayed the day before inoculation, tested at 40 ppm (*)): 90; Test D disease rating (100 = 100% disease control, 0 = no disease control) (Phytophthora infestans [2]; sprayed 17 h after inoculation, tested at 40 ppm (*)): 67; Test E disease rating (100 = 100% disease control, 0 = no disease control) ([3]; sprayed the day before inoculation, 7 days at 20° C., tested at 40 ppm (*)): 0
